Data set [1] can be described thus: Chemical stability of amorphous solid dispersions (HPLC: LCAP, total impurities) through processing and on storage. It is filed as physicochemical. The settings on record: all storage conditions. As for the experimental part:
The chemical and physical stability of AMG 397 50% drug load ASDs generated by spray drying from THF was monitored over 4 weeks under accelerated conditions. Chemical stability was measured by HPLC and physical stability by XRPD, DSC and TGA. Samples were stored at 40° C./75% RH open, 40° C./75% RH closed, 25° C./60% RH closed, and 5° C. closed. All samples were tested after storage for 4 weeks except for the 40° C./75% RH open condition that was also tested at weeks 1 and 2. The THF ASD samples had significant degradation at TO due to the use of THF as the spray solvent. […] Unlike the amorphous DS, the ASD samples were stable when stored at 5° C. for 4-weeks.
Two further amorphous solid dispersions (ASD) were therefore prepared by spray-drying using DCM as the solvent in place of THF. Soluplus was used to prepare both these dispersions due to its improved stability over HPMC-AS ASDs generated from THF. Two drug loads were investigated, 25% and 50%.
The chemical stability of AMG 397 Soluplus ASDs generated by spray drying using DCM was monitored during each processing step to ensure that no degradation occurred during spray-drying or secondary drying. Samples were also stored for 4 weeks under the following conditions: 5° C. closed, 25° C. closed, 25°,C/60% RH closed, 25° C./60% RH open, 40° C./75% RH open and 40° C./75% RH closed. […]

Data set [2] in a line: 2-stage micro-dissolution (faSSGF then faSSIF), amorphous vs crystalline hydrate. The class given is physicochemical. As for the experimental part: A 2-stage micro-dissolution experiment was performed to compare the dissolution of the amorphous AMG 397 drug substance to the crystalline hydrate form of AMG 397, as shown in FIG. 5. […] Upon dilution with fasted simulated intestinal fluid (faSSIF, pH 6.0 after dilution) the concentration of the amorphous material was seen to drop before increasing over the next 10 minutes and reaching a plateau. No precipitation of the amorphous material was observed, and it maintained at 5× higher concentration than the crystalline hydrate form of AMG 397 for the duration of the experiment. […] Unlike the amorphous material no further dissolution occurred once the media was switched to faSSIF.

The nature of data set [3]: Clinical observations in the beagle dog PK study. The class given is in vivo, male beagle dogs. The note with it: 3 mg/kg PO, individual dogs. As for the experimental part: Briefly, during each phase five male beagle dogs were assigned to each group of the study. All animals were fasted for at least eight hours prior to dosing and through the first four hours of blood sample collection for each phase. Food was returned within 30 minutes following collection of the last blood sample at the four-hour collection interval. Each animal in Phase 1, received a single oral (PO) gavage dose of the appropriate test article formulation as outlined in the study design Table 6. Oral gavage dosing formulations were continuously stirred throughout dosing. The gavage tube was rinsed with approximately 10 mL of tap water following dosing (prior to removal of the gavage tube). Following each study phase a 7-day washout period was allowed prior to the dosing of the next phase. The same five dogs were assigned to either group 1 or group 2 formulations for the duration of the study.
Test Article Administration: A total of 10 male beagle dogs were initially assigned to study. All animals were fasted for at least eight hours prior to dosing and through the first four hours of blood sample collection for each phase, where applicable (food will be returned within 30 minutes following collection of the last blood sample at the four hour collection interval, where applicable). Total fasting time […] 24 hours.
Different pre-treatments were assigned for each phase of the study to mimic several scenarios: • 1. No pre-treatment was administered for Phase 1 as it served as a control. • 2. During Phase 2, at 1 hour 54 minutes to 1 hour 58 minutes prior to dose administration, all animals were pretreated with two 20 mg (40 mg total) oral tablets of famotidine followed by a 10 mL dose of deionized water. […] This was used to determine the role of stomach pH on exposure. • 3. During Phases 3 and 4, at 30 to 38 minutes prior to dose administration, all animals were pretreated with a single intramuscular dose of pentagastrin in phosphate buffered saline, pH 7.4, at a dose level of 0.006 mg/kg and a dose volume of 0.05 mL/kg. The pentagastrin dose was used to ensure that the dogs stomach pH was normalized to pH ˜2.0 as it is known that the dogs stomach pH is often higher than that of humans under resting conditions. • 4. In addition, […], at 1 hour 3 minutes to 1 hour 6 minutes prior to dose administration and 4 hours 10 minutes to 4 hours 11 minutes following dose by oral gavage at a dose level of 3 mg/kg and a dose volume of 4 mL/kg. This final phase was used to study if P-gp played a role in absorption.

Data set [4] in a line: Moisture sorption profile (DVS). It is filed as physicochemical. The note with it: by 95% RH; listed as amorphous AMG 397. As for the experimental part:
Moisture Sorption: Moisture sorption data was collected using a Surface Measurement Systems DVSAdvantage instrument. Equilibrium criteria were set at ±0.001% weight change in 10 minutes with a maximum equilibrium time of 380 minutes.
Moisture Sorption: Moisture sorption data was collected using a Surface Measurement Systems DVSAdvantage instrument. Equilibrium criteria were set at ±0.001% weight change in 10 minutes with a maximum equilibrium time of 360 minutes.

Entries after “also recorded” stand apart in the source; their conditions may differ.

As to `CO[C@]1(CN2CCN3CCCC[C@@H]3C2)/C=C/C[C@H](C)[C@@H](C)S(=O)(=O)NC(=O)c2ccc3c(c2)N(C[C@@H]2CC[C@H]21)C[C@@]1(CCCc2cc(Cl)ccc21)CO3` [AMG 397 Amorphous], the “Change of total impurities at 4-weeks” value in data set [1] was “Increases in total impurities”. The “Concentration relative to the crystalline hydrate form” value in data set [2] (after dilution with faSSIF (pH 6.0), maintained for the duration of the experiment) was 5 ×; in data set [2] (simulated gastric fluid (faSSGF), after 20 minutes) it was roughly 8 ×. Also, the “Positive clinical findings (observation)” value in data set [3] (Phase 1 (Days 1 to 7), no pre-treatment) is “Yellow, frothy vomitus”; in data set [3] (Phase 2 (Days 8 to 14), famotidine pre-treatment) it was “White, frothy vomitus; also recorded: Soft feces; also recorded: Yellow, frothy vomitus”; in data set [3] (Phase 3 (Days 15 to 21), pentagastrin pre-treatment) it was “Salivation; also recorded: White, frothy vomitus; also recorded: Yellow, frothy vomitus”; in data set [3] (Phase 4 (Days 22 to 24), pentagastrin pre-treatment and inhibitor GF120918 pre- and post-treatment), “Small amount of white,”; in data set [3] (Phase 5 (Days 71 to 73), inhibitor GF120918 pre- and post-treatment, 3 mg/kg) it was “Salivation; also recorded: Watery feces; also recorded: Yellow, frothy vomitus; also recorded: Yellow, discolored feces; also recorded: Mucoid feces; also recorded: Tan, frothy vomitus”. Also, in data set [4], the “Moisture sorption weight gain” value is roughly 6.4%.

The values above are taken from US12643913B2, “Mcl-1 inhibitor formulations” (AMGEN INC., priority 2020, dated 2026).
